# Assay results taken from publication PMC4286194 (Biochemical Journal, 2015).
# Legend:
# Type in all cases: cell-based, mouse
# [1] = system: Bone-marrow-derived macrophages; experiment: IL-10 secretion (BIOPLEX) in LPS-stimulated macrophages; conditions: 10 μM; LPS-stimulated
# Method: The concentration of TNFα, IL-6, IL-10 and IL-12p40 in cell-free culture supernatants were measured using the Bio-Plex Pro Assay system (Bio-Rad).
# [2] = system: Bone-marrow-derived macrophages; experiment: CREB-dependent gene transcription (qPCR); conditions: macrophages
# Method: mRNA was extracted from cells using the MicroElute Total RNA kit following the manufacturers’ instructions (Omega Bio-Tek). cDNA was generated from 0.5 μg of total RNA using the iScript cDNA synthesis kit and quantified by quantitative real-time PCR (qPCR) using the SsoFast EvaGreen Supermix on a CFX384 real-time system (Bio-Rad Laboratories). The relative expression of each gene was calculated from CT values using the Pfaffl method and was normalized against the mRNA levels of housekeeping genes including 18S RNA and GAPDH. Results are reported relative to untreated control cells, which were set to 1.
# [3] = system: Bone-marrow-derived macrophages; experiment: TLR signalling immunoblots (MAPKs, MSK1/2, CREB, IKKs, TBK1); conditions: 3 μM bosutinib, 0.3 μM dasatinib or 0.5 μM HG-9-91-01
# Method: RAW264.7 cells were cultured in DMEM containing 10% FBS, 2 mM glutamine and penicillin and streptomycin. […] Cells were treated for 1 h with or without inhibitors and then stimulated for up to 24 h with either 1 μg/ml Pam3CSK4 or 100 ng/ml LPS.
# Cells were extracted in lysis buffer [50 mM Tris/HCl, pH 7.4, 1 mM EDTA, 1 mM EGTA, 50 mM NaF, 5 mM sodium pyrophosphate, 10 mM sodium β-glycerol 1-phosphate, 1 mM DTT, 1 mM sodium orthovanadate, 0.27 M sucrose, 1% (v/v) Triton X-100, 1 μg/ml aprotinin, 1 μg/ml leupeptin and 1 mM PMSF]. Cell extracts were clarified by centrifugation and protein concentrations were determined using the Bradford assay. To immunoprecipitate endogenous CRTC3, 1 mg of cell extract was incubated with 5 μg of anti-CRTC3 [13] covalently cross-linked on to Protein G–Sepharose. Immune complexes were washed three times with lysis buffer, eluted in 1% SDS and separated by SDS/PAGE. To detect proteins in cell lysates, 20 μg of protein extract was separated by SDS/PAGE. After transfer to PVDF membranes, proteins were detected by immunoblotting and visualized by treating the blots with ECL (GE Healthcare) followed by autoradiography.
Structure (SMILES),IL-10 production [1],CREB-dependent gene transcription and IL-10 production [2],"TLR-stimulated phosphorylation of ERK1/2, JNK1/2, p38α/β MAPKs, MSK1/2, IKKα/β, TBK1 and their direct substrates [3]"
"Cc1ccc(NC(=O)c2ccc(CN3CCN(C)CC3)cc2)cc1Nc1nccc(-c2cccnc2)n1 [Imatinib, imatinib]",failed to elevate IL-10 production,fail to induce CREB-dependent gene transcription and to elevate IL-10 production,–
"COc1cc2ncnc(Nc3ccc(F)c(Cl)c3)c2cc1OCCCN1CCOCC1 [Gefitinib, gefitinib]",failed to elevate IL-10 production,–,–
"C#Cc1cccc(Nc2ncnc3cc(OCCOC)c(OCCOC)cc23)c1 [Erlotinib, erlotinib]",failed to elevate IL-10 production,–,–
"CS(=O)(=O)CCNCc1ccc(-c2ccc3ncnc(Nc4ccc(OCc5cccc(F)c5)c(Cl)c4)c3c2)o1 [Lapatinib, lapatinib]",failed to elevate IL-10 production,–,–
"CCN(CC)CCNC(=O)c1c(C)[nH]c(/C=C2\C(=O)Nc3ccc(F)cc32)c1C [Sunitinib, sunitinib]",failed to elevate IL-10 production,–,–
"COc1cc2/c(=N/c3ccc(Br)cc3F)nc[nH]c2cc1OCC1CCN(C)CC1 [Vandetinib, vandetinib]",failed to elevate IL-10 production,–,–
COc1ccc(N(C(=O)Nc2c(C)cccc2C)c2cc(Nc3ccc(N4CCN(C)CC4)cc3)ncn2)c(OC)c1 [HG-9-91-01],–,–,occurred normally
